Measurements from patent publication US10221163B2 (priority 2015, dated 2019).
pIC50: −log10 of the molar value. Like-named read-outs stand apart in the source and are kept apart here.

Tests used:
[1] = tested on: Pseudomonas aeruginosa MB9798 vs MB9799
Procedure, shortened: (§1)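 PAO1 pair, broth microdilution; fixed β-lactam (imipenem/ceftazidime) at ~CLSI breakpoint + fixed class A/C BLI for AmpC; serial MBLi titration; endpoint = MBLi conc. restoring susceptibility; MB9798:MB9799 ratio = efflux liability.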

[2] = tested on: Klebsiella pneumoniae expressing VIM-1 (IHMA599644); type: cell-based; settings: for Klebsiella pneumoniae expressing VIM-1 (IHMA599644) MITC95: with imipenem 1 μg/ml, 95% inhibition of bacterial growth; for Klebsiella pneumoniae MITC95: VIM-1 strain IHMA599644, with imipenem 1 μg/ml, 95% inhibition of growth
Procedure, shortened: (§2)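 Growth by absorbance after 22–24 h at 35°C defined the read-out, with imipenem fixed at 1 μg/ml alongside compound. Inocula came from overnight blood-agar colonies at 35°C, resuspended in saline and diluted 1:100 in 1.1×CAMHB.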

[3] = tested on: Escherichia coli expressing NDM-1 (CLB30005, CLB30016); type: cell-based; settings: with imipenem 1 μg/ml; for Escherichia coli expressing NDM-1 (CLB30016) MITC95: 95% inhibition of bacterial growth; for Escherichia coli MITC95: NDM-1 strain, 95% inhibition of growth
Procedure, shortened: as §2

[4] = tested on: Serratia marcescens expressing IMP-1 (CL5741); type: cell-based; settings: for Serratia marcescens expressing IMP-1 (CL5741) MITC95: with imipenem 1 μg/ml, 95% inhibition of bacterial growth; for Serratia marcescens MITC95: IMP-1 strain CL5741, with imipenem 1 μg/ml, 95% inhibition of growth
Procedure, shortened: as §2

NDM-1 = NDM-1 (Klebsiella pneumoniae, UniProt C7C422); assay: biochemical; type: biochemical; settings: fluorescence assay, CCF2-FA substrate, 1 pM enzyme, 2 hours at 25° C.; read-out: NDM-1 IC50
Sequence of NDM-1 (C7C422 whole entry, looked up, species assumed): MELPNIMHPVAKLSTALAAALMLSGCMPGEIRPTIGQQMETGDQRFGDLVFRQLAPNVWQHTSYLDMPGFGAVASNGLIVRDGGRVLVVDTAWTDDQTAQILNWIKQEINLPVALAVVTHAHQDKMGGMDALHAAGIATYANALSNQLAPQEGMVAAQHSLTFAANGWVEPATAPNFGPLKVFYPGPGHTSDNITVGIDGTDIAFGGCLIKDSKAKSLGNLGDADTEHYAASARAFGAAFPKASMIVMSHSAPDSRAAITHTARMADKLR
Procedure, shortened: (§3)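 Class B activity is measured in the presence of compound by fluorescence with CCF2-FA after a 2-hour incubation at 25° C. IC50 is taken from a 4-parameter fit of semi-logarithmic dose-response data.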

IMP-1 = IMP-1 (Serratia marcescens, UniProt P52699); assay: biochemical; type: biochemical; settings: fluorescence assay, CCF2-FA substrate, 2 pM enzyme, 2 hours at 25° C.; read-out: IMP-1 IC50
Sequence of IMP-1 (P52699 whole entry, looked up, species assumed): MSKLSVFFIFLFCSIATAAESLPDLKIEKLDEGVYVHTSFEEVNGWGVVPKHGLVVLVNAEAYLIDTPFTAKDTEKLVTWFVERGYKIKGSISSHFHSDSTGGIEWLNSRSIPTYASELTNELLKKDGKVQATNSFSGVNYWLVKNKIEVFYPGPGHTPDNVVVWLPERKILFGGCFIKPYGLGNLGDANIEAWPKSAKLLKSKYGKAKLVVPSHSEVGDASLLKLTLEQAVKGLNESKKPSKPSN
Procedure, shortened: as §3

VIM-1 = VIM-1 (Pseudomonas aeruginosa (strain ATCC 15692 / DSM 22644 / CIP 104116 / JCM 14847 / LMG 12228 / 1C / PRS 101 / PAO1), UniProt A0A0F7KYQ8); assay: biochemical; settings: CCF2-FA substrate, 30 pM enzyme, 2 hours at 25° C.
Procedure, shortened: as §3

[5] = tested on: Pseudomonas aeruginosa efflux+ (MB9798), IMP-1; type: cell-based; parameters: Concentration of metallo-β-lactamase inhibitor which restores susceptibility of efflux + (MB9798) strain to imipenem: unit not given here; settings: C, D serine β-lactamase inhibitor closely related to relebactam; for P. aeruginosa expressing IMP-1, efflux + (MB9798) MITC95: concentration restoring susceptibility to imipenem at 2 μg/mL in the presence of a class A; for Concentration of metallo-β-lactamase inhibitor which restores susceptibility of efflux + (MB9798) strain to imipenem: imipenem at 2 μg/mL, in the presence of a class A
Procedure, shortened: as §1

[6] = tested on: Pseudomonas aeruginosa efflux− (MB9799), IMP-1; type: cell-based; settings: C, D serine β-lactamase inhibitor closely related to relebactam; for P. aeruginosa expressing IMP-1, efflux − (MB9799) MITC95: concentration restoring susceptibility to imipenem at 2 μg/mL in the presence of a class A; for Concentration of metallo-β-lactamase inhibitor which restores susceptibility of efflux − (MB9799) strain to imipenem: imipenem at 2 μg/mL, in the presence of a class A
Procedure, shortened: as §1

[7] = ratio MITC95 PA_9798/MITC95 PA_9799
[8] = fluorescence assay, read-out: VIM-1 IC50
[9] = fold difference between efflux+ (MB9798) and efflux− (MB9799) strains, imipenem at 2 μg/mL

| SMILES | Efflux ratio [1, 7] | Klebsiella pneumoniae expressing VIM-1 (IHMA599644) MITC95 [2] | Escherichia coli expressing NDM-1 (CLB30016) MITC95 [3] | Serratia marcescens expressing IMP-1 (CL5741) MITC95 [4] | pIC50 (NDM-1) | pIC50 (IMP-1) | pIC50 (VIM-1; [8]) | P. aeruginosa expressing IMP-1, efflux + (MB9798) MITC95 [5] | P. aeruginosa expressing IMP-1, efflux − (MB9799) MITC95 [6] | Efflux ratio [1, 9] | Klebsiella pneumoniae MITC95 [2] | Escherichia coli MITC95 [3] | Serratia marcescens MITC95 [4] | Concentration of metallo-β-lactamase inhibitor which restores susceptibility of efflux + (MB9798) strain to imipenem [5] | Concentration of metallo-β-lactamase inhibitor which restores susceptibility of efflux − (MB9799) strain to imipenem [6] | pIC50 (VIM-1; VIM-1 IC50, fluorescence assay) |
| --- | --- | --- | --- | --- | --- | --- | --- | --- | --- | --- | --- | --- | --- | --- | --- | --- |
| NCCCNS(=O)(=O)c1ccc(-c2cccc3[nH]cnc23)c(-c2nn[nH]n2)c1S(N)(=O)=O [Example 198, N^1-(3-aminopropyl)-4-(1H-benzo[d]imidazol-4-yl)-3-(2H-tetrazol-5-yl)benzene-1,2-disulfonamide] | 1.00 | 2.344 µM | 1.172 µM | 1.172 µM | 10.23 | 9.53 | 9.87 | 0.7813 µM | 0.7813 µM |  |  |  |  |  |  |  |
| NCC(CN)NS(=O)(=O)c1ccc(-c2ccc3nccn3c2)c(-c2nn[nH]n2)c1S(N)(=O)=O [Example 406] |  |  |  |  | 9.78 | 9.23 | 9.76 |  |  | 1.00 | 3.125 µM | 0.3906 µM | 0.7813 µM | 1.563 | 1.563 |  |
| Cn1c(N)nc2c(-c3ccc(S(=O)(=O)N[C@H]4CC[N+](C)(C)C4)c(S(N)(=O)=O)c3-c3nn[n-]n3)cccc21 [Example 167, (S)-5-(6-(2-amino-1-methyl-1H-benzo[d]imidazol-4-yl)-3-(N-(1,1-dimethylpyrrolidin-1-ium-3-yl)sulfamoyl)-2-sulfamoylphenyl)tetrazol-2-ide] | 2.00 | 3.125 µM | 1.563 µM | 1.563 µM | 10.23 | 9.46 |  | 3.125 µM | 1.563 µM |  |  |  |  |  |  | 9.77 |
| NCCNS(=O)(=O)c1ccc(-c2cccc(SCC(N)CO)c2)c(-c2nn[nH]n2)c1S(N)(=O)=O (stereo not drawn) [Example 354, 3′-((2-amino-3-hydroxypropyl)thio)-N4-(2-aminoethyl)-2-(2H-tetrazol-5-yl)-[1,1′-biphenyl]-3,4-disulfonamide] | 4.00 |  |  |  | 9.09 | 9.34 | 9.97 | 1.563 µM | 0.3906 µM |  | 0.7813 µM | 0.3906 µM | 1.563 µM |  |  |  |
| Nc1nc2c(-c3ccc(S(=O)(=O)N4CCNC(=O)C4)c(S(N)(=O)=O)c3-c3nnn[nH]3)cccc2s1 [Example 28, 3-(2-amino-1,3-benzothiazol-4-yl)-6-[(3-oxopiperazin-1-yl)sulfonyl]-2-(1H-tetrazol-5-yl)benzenesulfonamide] | 4.00 | 12.5 µM | 25 µM | 6.25 µM | 9.19 | 9.19 | 9.14 | 12.5 µM | 3.125 µM |  |  |  |  |  |  |  |
| CS(=O)(=O)Nc1ccc(-c2ccc(S(=O)(=O)N[C@@H]3CCNC3)c(S(N)(=O)=O)c2-c2nnn[nH]2)cc1 [Example 136, (R)-4′-(methylsulfonamido)-N4-(pyrrolidin-3-yl)-2-(1H-tetrazol-5-yl)-[1,1′-biphenyl]-3,4-disulfonamide] | 2.00 | 1.563 µM | 1.563 µM | 3.125 µM | 10.43 | 10.12 | 9.98 | 1.563 µM | 0.7813 µM |  |  |  |  |  |  |  |
| CO[C@H]1CNC[C@@H]1NS(=O)(=O)c1ccc(-c2cccc3sc(N)nc23)c(-c2nnn[nH]2)c1S(N)(=O)=O.O=C(O)C(F)(F)F [Example 108, (3S,4S)-3-(4-(2-aminobenzo[d]thiazol-4-yl)-2-sulfamoyl-3-(1H-tetrazol-5-yl)phenylsulfonamido)-4-methoxypyrrolidin-1-ium 2,2,2-trifluoroacetate] | 1.00 | 3.125 µM | 1.563 µM | 3.125 µM | 10.29 | 9.47 | 9.57 | 1.563 µM | 1.563 µM |  |  |  |  |  |  |  |
| NCC1CCCCN1S(=O)(=O)c1ccc(-c2cccc3sc(N)nc23)c(-c2nnn[nH]2)c1S(N)(=O)=O.O=C(O)C(F)(F)F (stereo not drawn) [Example 110, (1-((4-(2-aminobenzo[d]thiazol-4-yl)-2-sulfamoyl-3-(1H-tetrazol-5-yl)phenyl)sulfonyl)piperidin-2-yl)methanaminium 2,2,2-trifluoroacetate] | 1.00 | 3.125 µM | 1.563 µM | 3.125 µM | 10.09 | 9.46 | 9.51 | 1.563 µM | 1.563 µM |  |  |  |  |  |  |  |
| Nc1ccc(-c2ccc(S(=O)(=O)NC3CNC3)c(S(N)(=O)=O)c2-c2nn[nH]n2)cn1 [Example 493, 4-(6-aminopyridin-3-yl)-N1-(azetidin-3-yl)-3-(2H-tetrazol-5-yl)benzene-1,2-disulfonamide] |  |  |  |  | 9.72 | 9.39 | 9.75 |  |  | 0.50 | 1.563 µM | 0.3906 µM | 0.3906 µM | 0.3906 | 0.7813 |  |
| CN(C)C1CCN(S(=O)(=O)c2ccc(-c3cccc4sc(N)nc34)c(-c3nnn[nH]3)c2S(N)(=O)=O)CC1 [Example 26, 3-(2-amino-1,3-benzothiazol-4-yl)-6-{[4-(dimethylamino)piperidin-1-yl]sulfonyl}-2-(1H-tetrazol-5-yl)benzenesulfonamide] | 2.00 | 12.5 µM | 12.5 µM | 3.125 µM | 9.01 | 8.94 | 8.78 | 6.25 µM | 3.125 µM |  |  |  |  |  |  |  |
